Measured values taken from patent publication US20250129370A1, “METHOD FOR REDUCING HEPATIC TRIGLYCERIDES” (ADAERATA, LIMITED PARTNERSHIP, priority 2022, published 2025).

What was measured:
PCSK7 mRNA = PCSK7 mRNA qPCR after miRNA overexpression in Huh7 cells; type: cell-based, human; conditions: Huh7, 48 hours following transfection, vs mock vector
Procedure: RNA was isolated from the cells with the TRIzol™ Reagent (Invitrogen, USA) according to the manufacturer's instructions. The RNA samples were treated with RNase-free DNase I (Fermentas, USA) to eliminate any possible DNA contamination. Reverse transcription was performed using the PrimeScript™ First Strand cDNA Synthesis Kit (Takara, Japan) following the manufacturer's protocol. Briefly, one unit of the DNase I enzyme, 1 μL of a buffer, and 1 μg of total RNA were incubated for 30 minutes at 37° C. Then, 1 μL of 50 mM EDTA was added for enzyme inactivation and incubated at 65° C. for 10 minutes. Subsequently, 5 μL of DNase-treated RNA was added to the mix of 0.5 μL of the reverse-transcriptase enzyme, 2 μL of the reverse-transcriptase buffer, and 1 μL of a random hexamer and incubated for 15 minutes at 37° C., followed by 5 seconds at 85° C. for enzyme inactivation. Stem-loop RT-qPCR method was applied for evaluating the expression of miRNAs (Kramer, 2011). […]
All the reactions were repeated in duplicates. Next, melt curves were analyzed, with the mean threshold cycles used for further analyses. The relative expressions of the miRNAs and PCSK7 to RNU48 small nuclear RNA and/or GAPDH and β2m were calculated, respectively, via the 2-ΔΔCt method. […]

hTfR1 = assay: Western blot of hTfR1 protein in Huh7 cells co-transfected with miR-125a-5p vector; type: cell-based, human
From the text: FIGS. 31A-B. Western blot (FIG. 31A) and quantitative (FIG. 31B) analysis of the cellular expression of human TfR1 after the co-transfection of the miR-125a-5p and TfR1-overexpressing vectors in Huh7 cells. No direct effect by miR-125a-5p on TfR1 expression was observed. Here miR-125a-5p was overexpressed at different plasmid DNA ratios of PCSK7: miRNA: 1:2 (2×), 1:3 (3×), and 1:5 (5×). X stands for vector DNA fold for miR-125-5p compared to vector expressing PC7.
In the next step, the effect of miR-125a-5p on PC7 function was determined. […] Thereafter, the impact of miR-125a-5p on the enzymatic function of PC7 was assessed by co-transfecting Huh7 cells with the miR-125a-5p-overexpressing vector, with that coding for the full length of PCSK7, and a plasmid encoding hTfR1 (Guillemot et al., 2013; Durand et al., 2020). […]
Subsequently, proteins were isolated with an ice-cold RIPA buffer (1×), comprising 50 mM of Tris hydrochloride (pH 8), 150 mM of sodium chloride, 0.1% sodium dodecyl sulfate, 1% Nonidet P40, 0.25% sodium deoxycholate, and a cocktail of protease inhibitors (Roche, Oakville, ON, Canada). […] Both PC7 and TfR1 were C-terminally tagged with V5 and detected with a V5-monoclonal antibody (Invitrogen) and membranes were incubated with appropriate primary and secondary antibodies, as reported (Guillemot et al., 2013). […]

human PCSK9 = assay: Western blot of PCSK9 protein in Huh7 cells co-transfected with miRNA vectors; type: cell-based; conditions: Huh7, selectivity control
Procedure: Western blot analysis was conducted to determine whether miR-125a-5p affected the functional activity of […] PC7 in Huh7 cells. A wild-type human PC7-overexpressing vector was co-transfected with pre-miR-125a-5p and pre-miR-224-5p-overexpressing plasmids in Huh7 cells. […] As control, a human PCSK9-overexpressing vector was co-transfected with miR-125a-5p and miR-224-5p vectors in Huh7 cells, whereby these miRNAs had no effect on the expression level of PCSK9 protein (not shown).

miR-125a-5p: miRNA targeting PCSK7 3′-UTR and exons 14 and 15, overexpressed from pEGFP-C1 precursor vector (UCCCUGAGACCCUUUAACCUGUGA; miRNA expressed from a pEGFP-C1 precursor vector, further chemistry not given here)
effect on expression of PCSK7 mRNA (PCSK7 mRNA): did not reach statistical significance
expression level of the hTfR1 protein (hTfR1): exerted no effect
expression level of PCSK9 protein (human PCSK9): no effect
